target: Recombinant human Cbl-b (aa 36-427) (Homo sapiens (Human), UniProt Q13191); experiment: Cbl-b Biochemical Assay (TR-FRET); settings: read-out: TR-FRET hCbl-b IC50
How it was run: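 Two-step TR-FRET: 6 nM biotinylated Cbl-b preincubated 30-60 min with compound, then 60 min at RT with 1-2.5 nM Src-Zap70 and 0.5 mM ATP in HEPES pH 7.0 buffer, 1% DMSO. Stopped with 5 mM EDTA plus 100 nM UBE2D2-Ub-FL-BODIPY and 1 nM streptavidin-Tb, 60 min; 520 nm signal; IC50 from 4-parameter fit.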

Sequence of Recombinant human Cbl-b (aa 36-427) (Q13191 36-427): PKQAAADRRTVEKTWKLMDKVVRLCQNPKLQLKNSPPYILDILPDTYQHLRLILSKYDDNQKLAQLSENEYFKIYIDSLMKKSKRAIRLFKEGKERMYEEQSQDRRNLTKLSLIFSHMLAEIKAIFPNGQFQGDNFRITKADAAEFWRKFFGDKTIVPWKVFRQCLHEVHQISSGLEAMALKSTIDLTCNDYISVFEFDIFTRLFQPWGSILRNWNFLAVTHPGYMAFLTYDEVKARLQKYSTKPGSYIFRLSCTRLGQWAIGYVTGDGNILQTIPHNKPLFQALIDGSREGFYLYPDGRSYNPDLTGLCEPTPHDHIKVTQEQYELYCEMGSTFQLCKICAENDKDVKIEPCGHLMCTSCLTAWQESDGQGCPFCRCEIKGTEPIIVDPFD

`CCNc1cc(-c2ccccc2-c2nncn2C)cc(N2Cc3c(cc(CN[C@@H]4CCC[C@@H]4O)cc3C(F)(F)F)C2=O)n1` [AQ-1, 2-(6-(Ethylamino)-4-(2-(4-methyl-4H-1,2,4-triazol-3-yl)phenyl)pyridin-2-yl)-6-((((1R,2S)-2-hydroxycyclopentyl)amino)methyl)-4-(trifluoromethyl)isoindolin-1-one] and `CCNc1cc(-c2ccccc2-c2nncn2C)cc(N2Cc3c(cc(CN4CC(F)C4)cc3C(F)(F)F)C2=O)n1` [AG-1, 2-(6-(Ethylamino)-4-(2-(4-methyl-4H-1,2,4-triazol-3-yl)phenyl)pyridin-2-yl)-6-((3-fluoroazetidin-1-yl)methyl)-4-(trifluoromethyl)isoindolin-1-one] cannot be ordered by IC50: at most 200 nM for the first, at most 200 nM for the second.

`COC(=O)c1cc(-c2ccccc2-c2nncn2C)cc(N2Cc3c(cccc3C(F)(F)F)C2=O)c1` [Example H-5, Methyl 2′-(4-methyl-4H-1,2,4-triazol-3-yl)-5-(1-oxo-4-(trifluoromethyl)isoindolin-2-yl)-[1,1′-biphenyl]-3-carboxylate] and `Cn1cnnc1-c1ccccc1-c1cc(C(=O)O)cc(N2Cc3c(cccc3C(F)(F)F)C2=O)c1` [Example I-1, 2′-(4-Methyl-4H-1,2,4-triazol-3-yl)-5-(1-oxo-4-(trifluoromethyl)isoindolin-2-yl)-[1,1′-biphenyl]-3-carboxylic acid] fall in the same range of IC50: 10000 to 50000 nM for the first, 10000 to 50000 nM for the second.

Compared with `Cn1c(O)nnc1-c1cnccc1-c1cccc(N2Cc3c(cccc3C(F)(F)F)C2=O)c1` [AAS-6, 2-(3-(3-(5-Hydroxy-4-methyl-4H-1,2,4-triazol-3-yl)pyridin-4-yl)phenyl)-4-(trifluoromethyl)isoindolin-1-one], `Cn1cnnc1-c1ccncc1-c1cccc(N2Cc3c(cccc3C(F)(F)F)C2=O)c1` [ABB-5, 2-[3-[4-(4-Methyl-1,2,4-triazol-3-yl)pyridin-3-yl]phenyl]-4-(trifluoromethyl)-3H-isoindol-1-one] is lower in IC50: 10000 to 50000 nM for the first, 1000 to 10000 nM for the second. The second is the more potent here.

`CCNc1cc(-c2c(-c3nncn3C)cnn2C)cc(NC(=O)c2cc(CO)cc(C3CC3)n2)n1` [ABZ-7, 6-Cyclopropyl-N-(6-(ethylamino)-4-(1-methyl-4-(4-methyl-4H-1,2,4-triazol-3-yl)-1H-pyrazol-5-yl)pyridin-2-yl)-4-(hydroxymethyl) picolinamide] and `CCNc1cc(-c2c(-c3nncn3C)cnn2C)cc(NC(=O)c2cc(C)nc(C3CC3)n2)n1` [ABJ-4, 2-Cyclopropyl-N-(6-(ethylamino)-4-(1-methyl-4-(4-methyl-4H-1,2,4-triazol-3-yl)-1H-pyrazol-5-yl)pyridin-2-yl)-6-methylpyrimidine-4-carboxamide] cannot be ordered by IC50: at most 200 nM for the first, 200 to 1000 nM for the second.

`Cn1cnnc1-c1ccccc1-c1cccc(N2Cc3c(cc(CN[C@@H]4CCC[C@H]4O)cc3C(F)(F)F)C2=O)c1` [Example W-2, 6-((((1R,2R)-2-Hydroxycyclopentyl)amino)methyl)-2-(2′-(4-methyl-4H-1,2,4-triazol-3-yl)-[1,1′-biphenyl]-3-yl)-4-(trifluoromethyl)isoindolin-1-one] and `Cn1cnnc1-c1ccccc1-c1cccc(N2Cc3c(cc(CN[C@H]4CCC[C@H]4O)cc3C(F)(F)F)C2=O)c1` [AA-2, 6-((((1S,2R)-2-Hydroxycyclopentyl)amino)methyl)-2-(2′-(4-methyl-4H-1,2,4-triazol-3-yl)-[1,1′-biphenyl]-3-yl)-4-(trifluoromethyl)isoindolin-1-one] cannot be ordered by IC50: at most 200 nM for the first, at most 200 nM for the second.

Compared with `Cn1cnnc1-c1ccccc1-c1cc(N2Cc3c(cccc3C(F)(F)F)C2=O)nc(C2(CO)CC2)c1` [ACU-2, 2-(6-(1-(Hydroxymethyl)cyclopropyl)-4-(2-(4-methyl-4H-1,2,4-triazol-3-yl)phenyl)pyridin-2-yl)-4-(trifluoromethyl)isoindolin-1-one], `COC(=O)C1(c2cc(-c3ccccc3-c3nncn3C)cc(N3Cc4c(cccc4C(F)(F)F)C3=O)n2)CC1` [ACJ-6, Methyl 1-(4-(2-(4-methyl-4H-1,2,4-triazol-3-yl)phenyl)-6-(1-oxo-4-(trifluoromethyl)isoindolin-2-yl)pyridin-2-yl) cyclopropane-1-carboxylate] is higher in IC50: at most 200 nM for the first, 10000 to 50000 nM for the second.

`CCNc1cc(-c2c(-c3nncn3C)cnn2C)cc(N2Cc3c(cc(CNCCO)cc3C(F)(F)F)C2=O)n1` [ACI-1, 2-(6-(Ethylamino)-4-(1-methyl-4-(4-methyl-4H-1,2,4-triazol-3-yl)-1H-pyrazol-5-yl)pyridin-2-yl)-6-(((2-hydroxyethyl)amino)methyl)-4-(trifluoromethyl)isoindolin-1-one] and `CCNc1cc(-c2c(-c3nncn3C)cnn2C)cc(N2Cc3c(cc(CN4CCC5(CC5)C4)cc3C(F)(F)F)C2=O)n1` [ABC-7, 6-((5-Azaspiro [2.4]heptan-5-yl)methyl)-2-(6-(ethylamino)-4-(1-methyl-4-(4-methyl-4H-1,2,4-triazol-3-yl)-1H-pyrazol-5-yl)pyridin-2-yl)-4-(trifluoromethyl)isoindolin-1-one] cannot be ordered by IC50: at most 200 nM for the first, under 200 nM for the second.

`CN(C)c1cc(-c2ccccc2-c2nncn2C)cc(N2Cc3c(cc(CO)cc3C(F)(F)F)C2=O)n1` [AD-4, 2-(6-(dimethylamino)-4-(2-(4-methyl-4H-1,2,4-triazol-3-yl)phenyl)pyridin-2-yl)-6-(hydroxymethyl)-4-(trifluoromethyl)isoindolin-1-one] and `Cn1cnnc1-c1ccccc1-c1cc(C2CC2)nc(N2Cc3c(cc(CO)cc3C(F)(F)F)C2=O)c1` [ACK-3, 2-(6-Cyclopropyl-4-(2-(4-methyl-4H-1,2,4-triazol-3-yl)phenyl)pyridin-2-yl)-6-(hydroxymethyl)-4-(trifluoromethyl)isoindolin-1-one] cannot be ordered by IC50: 200 to 1000 nM for the first, at most 200 nM for the second.

`CCNc1cc(-c2ccccc2-c2nncn2C)cc(N2Cc3c(cc(CN4CCC5(CC5)C4)cc3C(F)(F)F)C2=O)n1` [ABR-1, 6-((5-Azaspiro [2.4]heptan-5-yl)methyl)-2-(6-(ethylamino)-4-(2-(4-methyl-4H-1,2,4-triazol-3-yl)phenyl)pyridin-2-yl)-4-(trifluoromethyl)isoindolin-1-one] and `Cn1cnnc1-c1cnn(C)c1-c1cc(Cl)nc(N2Cc3c(cc(CN4CCC5(CC5)C4)cc3C(F)(F)F)C2=O)c1` [ABD-1, 6-((5-Azaspiro [2.4]heptan-5-yl)methyl)-2-(6-chloro-4-(1-methyl-4-(4-methyl-4H-1,2,4-triazol-3-yl)-1H-pyrazol-5-yl)pyridin-2-yl)-4-(trifluoromethyl)isoindolin-1-one] cannot be ordered by IC50: at most 200 nM for the first, 200 to 1000 nM for the second.

First: Cn1cnnc1-c1ccccc1-c1cccc(N2Cc3c(cccc3C(F)(F)F)C2=O)c1 [AAK-2, 2-(2′-(4-Methyl-4H-1,2,4-triazol-3-yl)-[1,1′-biphenyl]-3-yl)-4-(trifluoromethyl)isoindolin-1-one]
Second: COc1ccc(-c2ccccc2-c2nncn2C)cc1N1Cc2c(cccc2C(F)(F)F)C1=O [Example G-4, 2-(4-Methoxy-2′-(4-methyl-4H-1,2,4-triazol-3-yl)-[1,1′-biphenyl]-3-yl)-4-(trifluoromethyl)isoindolin-1-one]
The IC50 of the first is lower: 200 to 1000 nM for the first, 10000 to 50000 nM for the second. The first is the more potent here.

`Cn1cnnc1-c1cnn(C)c1-c1cccc(N2Cc3c(cc(CN4CCC5(CC5)C4)cc3C(F)(F)F)C2=O)c1` [AAD-1, 6-((5-Azaspiro [2.4]heptan-5-yl)methyl)-2-(3-(1-methyl-4-(4-methyl-4H-1,2,4-triazol-3-yl)-1H-pyrazol-5-yl)phenyl)-4-(trifluoromethyl)isoindolin-1-one] and `Cn1cnnc1-c1ccccc1-c1cccc(N2Cc3c(cc(CN4CC[C@@H](F)C4)cc3C(F)(F)F)C2=O)c1` [Example Y-2, (R)-6-((3-Fluoropyrrolidin-1-yl)methyl)-2-(2′-(4-methyl-4H-1,2,4-triazol-3-yl)-[1,1′-biphenyl]-3-yl)-4-(trifluoromethyl)isoindolin-1-one] cannot be ordered by IC50: at most 200 nM for the first, 200 to 1000 nM for the second.

Compared with `Cn1cnnc1-c1ccccc1-c1cc(N2CCCC2)nc(N2Cc3c(cccc3C(F)(F)F)C2=O)c1` [AC-3], `Cn1cnnc1-c1ccccc1-c1cc(N2Cc3c(cccc3C(F)(F)F)C2=O)nc(C(F)(F)F)c1` [Example J-4, 2-(4-(2-(4-Methyl-4H-1,2,4-triazol-3-yl)phenyl)-6-(trifluoromethyl)pyridin-2-yl)-4-(trifluoromethyl)isoindolin-1-one] is higher in IC50: 1000 to 10000 nM for the first, 10000 to 50000 nM for the second. The first is the more potent here.

First: Cn1cnnc1-c1cnn(C)c1-c1cc(O)nc(N2Cc3c(cccc3C(F)(F)F)C2=O)c1 [AAO-1, 2-(6-Hydroxy-4-(1-methyl-4-(4-methyl-4H-1,2,4-triazol-3-yl)-1H-pyrazol-5-yl)pyridin-2-yl)-4-(trifluoromethyl)isoindolin-1-one]
Second: Cn1cnnc1-c1cnn(C)c1-c1cc(Cl)nc(N2Cc3c(cccc3C(F)(F)F)C2=O)c1 [AAN-7, 2-(6-Chloro-4-(1-methyl-4-(4-methyl-4H-1,2,4-triazol-3-yl)-1H-pyrazol-5-yl)pyridin-2-yl)-4-(trifluoromethyl)isoindolin-1-one]
The IC50 of the first is higher: 10000 to 50000 nM for the first, 1000 to 10000 nM for the second. The second is the more potent here.

Compared with `CCn1cc(-c2nncn2C)c(-c2cccc(N3Cc4c(cccc4C(F)(F)F)C3=O)c2)n1` [AAF-9, 2-[3-[1-Ethyl-4-(4-methyl-1,2,4-triazol-3-yl)pyrazol-3-yl]phenyl]-4-(trifluoromethyl)-3H-isoindol-1-one], `Cn1cnnc1-c1cnn(C)c1-c1ccnc(N2Cc3c(cccc3C(F)(F)F)C2=O)c1` [AAM-3, 2-(4-(1-Methyl-4-(4-methyl-4H-1,2,4-triazol-3-yl)-1H-pyrazol-5-yl)pyridin-2-yl)-4-(trifluoromethyl)isoindolin-1-one] is lower in IC50: 10000 to 50000 nM for the first, 1000 to 10000 nM for the second.

`CCNc1cc(-c2c(-c3nncn3C)cnn2C)cc(N2Cc3c(cc(C(=O)N4CC[C@@H](O)C4)cc3C(F)(F)F)C2=O)n1` [ACT-2, (R)-2-(6-(Ethylamino)-4-(1-methyl-4-(4-methyl-4H-1,2,4-triazol-3-yl)-1H-pyrazol-5-yl)pyridin-2-yl)-6-(3-hydroxypyrrolidine-1-carbonyl)-4-(trifluoromethyl)isoindolin-1-one] gave an IC50 of at most 200 nM.
